Experimental data taken from ChEMBL document CHEMBL1201862, “PubChem BioAssay data set” (2004).
Where a name gives a salt, the structure may show the parent alone. Active and inactive are the calls of the source.

Experiments:
[1] = molecular target: Paired box protein Pax-8 (Homo sapiens, UniProt Q06710); experiment: inhibitors of PAX8-driven TPO luciferase reporter, dose response, RMG-I cells, cherry-pick (AID 687027); type: functional, cell-based;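 note: luciferase reporter driven by Pax8 target thyroperoxidase promoter measured by SteadyGlo luminescence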
Paired box protein Pax-8, sequence (Q06710 whole entry): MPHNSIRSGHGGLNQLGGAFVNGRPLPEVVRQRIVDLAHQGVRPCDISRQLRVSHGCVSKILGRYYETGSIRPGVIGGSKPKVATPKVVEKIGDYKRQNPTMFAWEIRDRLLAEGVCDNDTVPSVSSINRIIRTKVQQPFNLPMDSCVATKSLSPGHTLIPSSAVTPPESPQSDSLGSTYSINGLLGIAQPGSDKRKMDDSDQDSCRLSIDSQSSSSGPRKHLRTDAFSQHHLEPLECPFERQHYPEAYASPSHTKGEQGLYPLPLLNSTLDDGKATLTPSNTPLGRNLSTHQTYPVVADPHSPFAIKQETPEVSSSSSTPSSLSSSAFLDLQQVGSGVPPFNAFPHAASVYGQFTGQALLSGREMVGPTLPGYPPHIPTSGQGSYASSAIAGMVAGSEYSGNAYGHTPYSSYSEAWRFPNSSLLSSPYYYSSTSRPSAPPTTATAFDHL

[2] = NIH:OVCAR-3 ovarian cancer cell cytotoxicity, dose response, PAX8 inhibitor project, plate reader, dry powder samples (AID 743044); type: functional, cell-based
[3] = YAP1 pathway inhibition via CTGF transcript levels, dose response, cell-based, DLD1 colon cancer, RT-qPCR, cherry-pick (AID 1053122); type: functional; details: Cancer cell lines
[4] = CTGF mRNA reduction under YAP1 overexpression, dose response, mechanism study for YAP1 pathway inhibitor project, DLD1 cells, RT-qPCR, cherry-pick (AID 1053127); type: functional, cell-based; details: DLD-1
[5] = P. falciparum Dd2 blood-stage growth inhibition, dose response, SYBR Green fluorescence, erythrocytes, dry powder, set 2 (AID 1159574); type: functional, cell-based
[6] = cells; details: HEK293
[7] = A549 cell cytotoxicity, dose response, cytotoxicity control, plate reader, dry powder, set 6 (AID 743312); type: functional, cell-based
[8] = HepG2 cell cytotoxicity, dose response, cytotoxicity control, plate reader, dry powder, set 6 (AID 743311); type: functional, cell-based
[9] = HEK293T cell cytotoxicity, dose response, cytotoxicity control, plate reader, dry powder, set 10 (AID 743315); type: functional, cell-based; details: HEK293
[10] = A549 cell cytotoxicity, dose response, CellTiter-Glo luminescence, dry powder, set 17 (AID 1117284); type: functional, cell-based
[11] = P. falciparum Dd2 growth inhibitors, dose response, SYBR Green, dry powder samples, set 9 (AID 1159568); type: functional, cell-based
[12] = P. falciparum 3D7-ScDHODH growth inhibitors, dose response, SYBR Green, dry powder samples (AID 1159570); type: functional, cell-based;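 note: parasite growth measured after 72 hours of compound exposure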
[13] = P. falciparum ATP4 D1247Y mutant growth inhibitors, dose response, NITD609-resistant line, SYBR Green, dry powder (AID 1159571); type: functional, cell-based;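 note: parasites synchronized at ring stage by sorbitol before testing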
[14] = HepG2 cell cytotoxicity, dose response, cytotoxicity control, plate reader, dry powder samples (AID 1159569); type: functional, cell-based;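 note: inhibitor potency with signal falling toward the positive control level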
[15] = P. falciparum Dd2 growth inhibitors, dose response, SYBR Green, dry powder samples (AID 1159566); type: functional, cell-based;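 note: potency for growth inhibition with lower SYBR green DNA signal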
[16] = Concentration-dependent survival of SW480 colon cancer line, luminescence detection with CellTiter-Glo, half-maximal inhibitory concentration (AID 1117338); type: functional
[17] = SNU-C1 cell viability reduction, dose response, CellTiter-Glo luminescence (AID 1117323); type: functional, cell-based
[18] = RKO cell viability reduction, dose response, CellTiter-Glo luminescence (AID 1117322); type: functional
[19] = cytotoxicity toward Colo320 cells – cell-based, CellTiter-Glo luminescence, IC50, dose response (AID 1117334); type: functional; details: COLO 320
[20] = CellTiter-Glo luminescent dose response of DLD-1 viability loss (AID 1117352); type: functional
[21] = cytotoxicity toward HT-29 cells – cell-based, CellTiter-Glo luminescence, IC50, dose response (AID 1117330); type: functional
[22] = cytotoxicity toward HCT116 cells – cell-based, CellTiter-Glo luminescence, IC50, dose response (AID 1117332); type: functional; details: HCT-116
[23] = HeLa 4N DNA content increase, dose response, cell-based, IC50 (AID 1117351); type: functional
[24] = HeLa 2N DNA content increase, dose response, cell-based, IC50 (AID 1117349); type: functional

C[C@@H]1CN([C@H](C)CO)S(=O)(=O)c2ccc(C#Cc3ccc(F)cc3)cc2O[C@H]1CN(C)C(=O)NC1CCCCC1
AC50 [1]: 9.47 µM (active) | AC50 [2]: 48.1 µM (active)

COc1ccccc1C#Cc1ccc([C@@H]2[C@@H](CO)N3CCCCN(C(=O)C4CCC4)C[C@@H]23)cc1
AC50 [3]: 15.9 µM (active) | AC50 [4]: 17.7 µM (active)

COc1ccc2c3c([nH]c2c1)[C@@H](CO)N(C(C)=O)CC31CCN(C(=O)Nc2ccccc2F)CC1
AC50 [5]: 2.48 µM (active)

Cc1cccc(OCCn2c(S)nc3cc(F)ccc32)c1
AC50 [6]: > 52 µM (inactive) | AC50 [7]: 23.4 µM (active) | AC50 [8]: 44.9 µM (active) | AC50 [9]: > 52 µM (inactive)

C[C@H]1CN([C@@H](C)CO)S(=O)(=O)c2ccc(-c3ccc(O)cc3)cc2O[C@H]1CN(C)Cc1ccc(-c2ccccc2)cc1
AC50 [10]: > 52 µM (inactive)

N#C[C@H]1[C@H](c2ccc(-c3cccc(F)c3)cc2)[C@@H](CO)N1C(=O)NC1CCCC1
AC50 [11]: 20.2 µM (active)

C[C@H]1CN([C@@H](C)CO)C(=O)c2c(c3ccccc3n2C)-c2ccccc2CO[C@H]1CN(C)S(=O)(=O)c1ccc(F)cc1
AC50 [12]: 0.819 µM (active) | AC50 [13]: 1.05 µM (active) | AC50 [14]: 50.9 µM (active) | AC50 [15]: 0.47 µM (active)

Cc1cccc(Cc2c[nH]cn2)c1C [DETOMIDINE HYDROCHLORIDE]
IC50 [16]: > 20 µM (inactive) | IC50 [17]: > 20 µM (inactive) | IC50 [18]: > 20 µM (inactive) | IC50 [19]: > 20 µM (inactive) | IC50 [20]: > 20 µM (inactive) | IC50 [21]: > 20 µM (inactive) | IC50 [22]: > 20 µM (inactive)

C[C@@H]1C[C@H]2[C@@H]3CCC4=CC(=O)C=C[C@]4(C)[C@@]3(Cl)[C@@H](O)C[C@]2(C)[C@@]1(OC(=O)c1ccco1)C(=O)CCl [MOMETASONE FUROATE]
IC50 [23]: > 10 µM (inactive) | IC50 [24]: > 10 µM (inactive)
